Reference: patent publication US8802664B2 (Bioproject, priority 2010, dated 2014)

biological target: T1, human H4 receptor (Homo sapiens, UniProt Q9H3N8); assay: [3H]Histamine binding on membranes of CHO cells stably expressing human H4 receptor
T1 construct: expressed in transfected cells
Summary of the method: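 CHO-hH4 membranes 20 μg/well; buffer 50 mM Tris/HCl, 0.5 mM EDTA, pH 7.4; NSB: 10 μM JNJ 7777120 (BP1.2404); GF/B filtration (PEI-presoaked), 3 ice-cold washes; scintillation counting.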

| Ki or IC50 activity class [nM] | SMILES |
| --- | --- |
| < 300 | CN1CCC(OC(c2cccc(C=CC#N)c2)c2nc3ccccc3s2)CC1 (stereo not shown) [Example 217, 3-{3-[benzothiazol-2-yl(1-methylpiperidin-4-yloxy)methyl]phenyl}acrylonitrile] |
| < 1000 | CN1CCC(OC(c2cccc(N3CCCC3CO)c2)c2nc3ccccc3s2)CC1 (stereo not shown) [Example 323, (1-{3-[benzothiazol-2-yl(1-methylpiperidin-4-yloxy)methyl]phenyl}pyrrolidin-2-yl)methanol] |
| < 1000 | CN1CCC(OC(c2cccc(S(C)(=O)=O)c2)c2nc3ccccc3s2)CC1 (stereo not shown) [Example 203, 2-[(3-methanesulfonylphenyl)(1-methylpiperidin-4-yloxy)methyl]benzothiazole] |
| < 300 | CN1CCC(OC(c2cccc(C#CCCCn3cccn3)c2)c2nc3ccccc3[nH]2)CC1 (stereo not shown) [Example 410, 2-{(1-methylpiperidin-4-yloxy)[3-(5-pyrazol-1-yl-pent-1-ynyl)phenyl]methyl}-1H-benzimidazole] |
| < 300 | CCn1c(C(OC2CCN(C)CC2)c2cccc(C#CCCCCN)c2)nc2ccccc21 (stereo not shown) [Example 503] |
| < 300 | CN1CCC(OC(c2cccc(N3CCCC3CO)c2)c2nc3ccccc3s2)CC1 (stereo not shown) [Example 324, (1-{3-[benzothiazol-2-yl(1-methylpiperidin-4-yloxy)methyl]phenyl}pyrrolidin-2-yl)methanol] |
| < 30 | CN1CCC(OC(c2cccc(C#CCCCCN)c2)c2nc3ccccc3[nH]2)CC1 (stereo not shown) [Example 337, 6-{3-[(1H-benzimidazol-2-yl)(1-methylpiperidin-4-yloxy)methyl]phenyl}hex-5-ynylamine] |
| < 30 | CN1CCC(OC(c2cccc(C#CCNC(=N)N)c2)c2nc3ccccc3[nH]2)CC1 (stereo not shown) [Example 418, N-(3-{3-[(1H-benzimidazol-2-yl)(1-methylpiperidin-4-yloxy)methyl]phenyl}prop-2-ynyl)guanidine] |
| < 300 | CN1CCC(OC(c2cccc(SCC(=O)NN)c2)c2nc3ccccc3s2)CC1 (stereo not shown) [Example 264, {3-[benzothiazol-2-yl(1-methylpiperidin-4-yloxy)methyl]phenylsulfanyl}acetic acid hydrazide] |
| < 30 | CSc1cccc(C(OC2CCN(C)CC2)c2nc3ccccc3s2)c1 (stereo not shown) [Example 201, 2-[(1-methylpiperidin-4-yloxy)(3-methylsulfanyl-phenyl)methyl]benzothiazole] |
| < 30 | CCCOc1ccc(F)c(C(OC2CCN(C)CC2)c2nc3ccccc3[nH]2)c1 (stereo not shown) [Example 519] |
| < 30 | CN1CCC(OC(c2cccc(SCCNC(=N)N)c2)c2nc3ccccc3[nH]2)CC1 (stereo not shown) [Example 278, N-(2-{3-[(1H-benzimidazol-2-yl)(1-methylpiperidin-4-yloxy)methyl]phenylsulfanyl}ethyl)guanidine] |
| < 300 | CN1CCC(OC(c2cccc(OCc3ccncc3)c2)c2nc3ccccc3s2)CC1 (stereo not shown) [Example 265, 2-{(1-methylpiperidin-4-yloxy)[3-(pyridin-4-ylmethoxy)phenyl]methyl}benzothiazole] |
| < 300 | CN1CCC(OC(c2cccc(OCc3cccnc3)c2)c2nc3ccccc3s2)CC1 (stereo not shown) [Example 284, 2-{(1-methylpiperidin-4-yloxy)[3-(pyridin-3-ylmethoxy)phenyl]methyl}benzothiazole] |
| < 1000 | CN1CCC(OC(c2cccc(CCC3CCNCC3)c2)c2nc3ccccc3[nH]2)CC1 (stereo not shown) [Example 396, 2-{(1-methylpiperidin-4-yloxy)[3-(2-piperidin-4-yl-ethyl)phenyl]methyl}-1H-benzimidazole] |
| < 300 | CN1CCC(OC(c2cccc(C(=O)N(C)c3ccccc3)c2)c2nc3ccccc3s2)CC1 (stereo not shown) [Example 223, 3-[benzothiazol-2-yl(1-methylpiperidin-4-yloxy)methyl]-N-methyl-N-phenylbenzamide] |
| < 300 | CN1CCC(OC(c2cccc(N3CCC(N)CC3)c2)c2nc3ccccc3s2)CC1 (stereo not shown) [Example 405, 1-{3-[benzothiazol-2-yl(1-methylpiperidin-4-yloxy)methyl]phenyl}piperidin-4-ylamine] |
| < 300 | CN1CCC(OC(c2cccc(C=CS(=O)(=O)c3ccccc3)c2)c2nc3ccccc3s2)CC1 (stereo not shown) [Example 209, 2-[[3-(2-benzenesulfonylvinyl)phenyl](1-methylpiperidin-4-yloxy)methyl]benzothiazole] |
| < 1000 | CN1CCC(OC(c2cccc(OCC3CCCN(C)C3)c2)c2nc3ccccc3s2)CC1 (stereo not shown) [Example 379, 2-[[3-(1-methylpiperidin-3-ylmethoxy)phenyl](1-methylpiperidin-4-yloxy)methyl]benzothiazole] |
| < 1000 | CN1CCC(OC(c2nc3ccccc3s2)c2ccccc2Cl)CC1 (stereo not shown) [Example 281, 2-[(2-Chlorophenyl)(1-methylpiperidin-4-yloxy)methyl]benzothiazole] |
| < 1000 | CN1CCC(OC(c2cccc(SC(C)(C)CCO)c2)c2nc3ccccc3s2)CC1 (stereo not shown) [Example 242, 3-{3-[benzothiazol-2-yl(1-methylpiperidin-4-yloxy)methyl]phenylsulfanyl}-3-methyl-butan-1-ol] |
| < 300 | CN1CCC(OC(c2cccc(SCCCc3cnc[nH]3)c2)c2nc3ccccc3[nH]2)CC1 (stereo not shown) [Example 398, 2-[{3-[3-(3H-imidazol-4-yl)propylsulfanyl]phenyl}(1-methylpiperidin-4-yloxy)methyl]-1H-benzimidazole] |
| < 300 | CN1CCC(OC(c2cccc(SCCCCCCO)c2)c2nc3ccccc3s2)CC1 (stereo not shown) [Example 292, 6-{3-[benzothiazol-2-yl(1-methylpiperidin-4-yloxy)methyl]phenylsulfanyl}hexan-1-ol] |

More lines, now with the values behind:

| SMILES | Ki or IC50 activity class [nM] |
| --- | --- |
| CN1CCC(OC(c2cccc(-c3cccc(N)c3)c2)c2nc3ccccc3s2)CC1 (stereo not shown) [Example 79, 3′-[benzothiazol-2-yl(1-methylpiperidin-4-yloxy)methyl]biphenyl-3-ylamine] | < 300 |
| CN1CCC(NC(c2cccc(SCc3ccccc3)c2)c2nc3ccccc3[nH]2)CC1 (stereo not shown) [Example 104, [(1H-benzimidazol-2-yl)(3-benzylsulfanylphenyl)methyl](1-methylpiperidin-4-yl)amine] | < 30 |
| CN1CCC(OC(c2cccc(OCCCC(F)(F)F)c2)c2nc3ccccc3s2)CC1 (stereo not shown) [Example 169, 2-{(1-methylpiperidin-4-yloxy)[3-(4,4,4-trifluoro-butoxy)phenyl]methyl}benzothiazole] | < 1000 |
| CN1CCC(NC(c2cccc(OCCCC3(C)OCCO3)c2)c2nc3ccccc3[nH]2)CC1 (stereo not shown) [Example 174, ((1H-benzimidazol-2-yl)-{3-[3-(2-methyl-[1,3]dioxolan-2-yl)-propoxy]phenyl}methyl)(1-methylpiperidin-4-yl)amine] | < 300 |
| Cc1ccc2sc(C(OC3CCN(C)CC3)c3ccccc3)nc2c1 (stereo not shown) [Example 29, 5-methyl-2-[(1-methylpiperidin-4-yloxy)phenylmethyl]benzothiazole] | < 1000 |
| CN1CCC(NC(c2cccc(OCc3ccc(F)cc3)c2)c2nc3ccccc3[nH]2)CC1 (stereo not shown) [Example 103, {(1H-benzimidazol-2-yl)[3-(4-fluorobenzyloxy)phenyl]methyl}(1-methylpiperidin-4-yl)amine] | < 300 |
| CN1CCC(OC(c2cccc(SCCO)c2)c2nc3ccccc3s2)CC1 (stereo not shown) [Example 158, 2-{3-[benzothiazol-2-yl(1-methylpiperidin-4-yloxy)methyl]phenylsulfanyl}ethanol] | < 30 |
| CC(C)Oc1cccc(C(OC2CCN(C)CC2)c2nc3ccccc3s2)c1 (stereo not shown) [Example 55, 2-[(3-isopropoxyphenyl)(1-methylpiperidin-4-yloxy)methyl]benzothiazole] | < 30 |
| CC(C)Oc1cccc(C(NC2CCN(C)CC2)c2nc3ccccc3s2)c1 (stereo not shown) [Example 88, [benzothiazol-2-yl(3-isopropoxyphenyl)methyl](1-methylpiperidin-4-yl)amine] | < 30 |
| CN1CCC(OC(c2ccccc2)c2nc3cc(F)ccc3s2)CC1 (stereo not shown) [Example 33, 5-fluoro-2-[(1-methylpiperidin-4-yloxy)phenylmethyl]benzothiazole] | < 300 |
| CN1CCC(OC(c2cccc(OCCCCn3nccn3)c2)c2nc3ccccc3s2)CC1 (stereo not shown) [Example 315, 2-{(1-methylpiperidin-4-yloxy)[3-(4-[1,2,3]triazol-2-yl-butoxy)phenyl]methyl}benzothiazole] | < 1000 |
| CN1CCC(OC(c2cccc(C#CCCNC(=N)NC(=O)OC(C)(C)C)c2)c2nc3ccccc3[nH]2)CC1 (stereo not shown) [Example 307, N-tert-butoxycarbonyl-N′-(4-{3-[(1H-benzimidazol-2-yl)(1-methylpiperidin-4-yloxy)methyl]phenyl}but-3-ynyl)guanidine] | < 1000 |
| CN1CCC(OC(c2ccc3c(c2)OCO3)c2nc3ccccc3s2)CC1 (stereo not shown) [Example 20, 2-[benzo[1,3]dioxol-5-yl(1-methylpiperidin-4-yloxy)methyl]benzothiazole] | < 300 |
| CN1CCC(OC(c2cccc(SCc3ccco3)c2)c2nc3ccccc3[nH]2)CC1 (stereo not shown) [Example 173, 2-[[3-(furan-2-ylmethylsulfanyl)phenyl](1-methylpiperidin-4-yloxy)methyl]-1H-benzimidazole] | < 300 |
| CCCOc1cccc(C(NC2CCN(C)CC2)c2nc3ccccc3s2)c1 (single isomer, unassigned) [Example 57, [benzothiazol-2-yl(3-propoxyphenyl)methyl](1-methylpiperidin-4-yl)amine] | < 30 |
| CC(=O)CCCOc1cccc(C(OC2CCN(C)CC2)c2nc3ccccc3s2)c1 (stereo not shown) [Example 186, 5-{3-[benzothiazol-2-yl(1-methylpiperidin-4-yloxy)methyl]phenoxy}pentan-2-one] | < 1000 |
| CN1CCC(NC(c2cccc(Oc3ccccc3)c2)c2nc3ccccc3[nH]2)CC1 (stereo not shown) [Example 85, [(1H-benzimidazol-2-yl)(3-phenoxyphenyl)methyl](1-methylpiperidin-4-yl)amine] | < 300 |
